Source: ChEMBL document CHEMBL4610050, “Development of novel NLRP3-XOD dual inhibitors for the treatment of gout” (Bioorg Med Chem Lett, 2020)
Active and inactive are the calls of the source. The calls are words filed in the database; no cut-off is given here.

How the values were obtained:
[1] = biological target: T1, Xanthine dehydrogenase/oxidase (Homo sapiens, UniProt P47989); assay: Inhibition of xanthine oxidase (unknown origin)
[2] = Cytotoxicity against human THP-1 cells; assay type: cell-based
[3] = biological target: NACHT, LRR and PYD domains-containing protein 3 (Homo sapiens, UniProt Q96P20); assay: Inhibition of NLRP3 in human THP1 cells assessed as inhibition of MSU-induced IL-1beta production; assay type: cell-based, THP-1
Rattus norvegicus [4] = organism: Rattus norvegicus; assay: Antiarthritic activity against MSU-induced acute gout arthritis rat model assessed as degree of ankle joint swelling after 4 hrs (reference value: 8.8 +/- 1.7); assay type: functional
Rattus norvegicus [5] = organism: Rattus norvegicus; assay: Antiarthritic activity against MSU-induced acute gout arthritis rat model assessed as degree of ankle joint swelling after 2 hrs (reference value: 7.5 +/- 1.6); assay type: functional
Rattus norvegicus [6] = assay: Inhibition of MSU-induced NLRP3 protein expression in synovial tissue of MSU-induced acute gout arthritis rat model at 10 mg/kg by western blot analysis; assay type: functional, organism-based
Rattus norvegicus [7] = assay: Inhibition of MSU-induced ASC protein expression in synovial tissue of MSU-induced acute gout arthritis rat model at 10 mg/kg by western blot analysis; assay type: functional, organism-based
Rattus norvegicus [8] = organism: Rattus norvegicus; assay: Antiarthritic activity against MSU-induced acute gout arthritis rat model assessed as degree of ankle joint swelling after 8 hrs (reference value: 7.8 +/- 1.6); assay type: functional
Rattus norvegicus [9] = organism: Rattus norvegicus; assay: Antiarthritic activity against MSU-induced acute gout arthritis rat model assessed as degree of ankle joint swelling after 24 hrs (reference value: 5.6 +/- 1.8); assay type: functional
Rattus norvegicus [10] = assay: Inhibition of MSU-induced caspase-1 protein expression in synovial tissue of MSU-induced acute gout arthritis rat model at 10 mg/kg by western blot analysis; assay type: functional, organism-based
Rattus norvegicus [11] = organism: Rattus norvegicus; assay: Antiarthritic activity in rat at model of acute gout arthritis assessed as effect on MSU-induced ankle joint swelling after 24 hrs (reference value: 5.6 +/- 1.8); assay type: functional
Rattus norvegicus [12] = organism: Rattus norvegicus; assay: Antiarthritic activity against MSU-induced acute gout arthritis rat model assessed as degree of ankle joint swelling after 48 hrs (reference value: 3.4 +/- 0.5); assay type: functional
Rattus norvegicus [13] = assay: Antiarthritic activity against MSU-induced acute gout arthritis rat model assessed as degree of ankle joint swelling at 5 mg/kg after 8 hrs (reference value: 7.8 +/- 1.6); assay type: functional
Rattus norvegicus [14] = assay: Antiarthritic activity against MSU-induced acute gout arthritis rat model assessed as degree of ankle joint swelling at 10 mg/kg after 4 hrs (reference value: 8.8 +/- 1.7); assay type: functional
Rattus norvegicus [15] = assay: Antiarthritic activity against MSU-induced acute gout arthritis rat model assessed as degree of ankle joint swelling at 5 mg/kg after 12 hrs (reference value: 6.6 +/- 1.5); assay type: functional
Mus musculus [16] = assay: In vivo inhibition of xanthine oxidase in potassium oxonate-induced hyperuricemia mouse model assessed as reduction enzyme activity in liver at 10 mg/kg relative to control; assay type: functional
Rattus norvegicus [17] = organism: Rattus norvegicus; assay: Down regulation of MSU-induced ASC protein expression in synovial tissue of MSU-induced acute gout arthritis rat model by western blot analysis; assay type: functional, organism-based
Rattus norvegicus [18] = assay: Antiarthritic activity against MSU-induced acute gout arthritis rat model assessed as degree of ankle joint swelling at 10 mg/kg after 48 hrs (reference value: 3.4 +/- 0.5); assay type: functional
Mus musculus [19] = assay: In vivo inhibition of xanthine oxidase in mouse assessed as reduction in enzyme activity in liver at 10 mg/kg relative to control; assay type: functional
Rattus norvegicus [20] = assay: Antiarthritic activity against MSU-induced acute gout arthritis rat model assessed as degree of ankle joint swelling at 10 mg/kg after 12 hrs (reference value: 6.6 +/- 1.5); assay type: functional
Rattus norvegicus [21] = assay: Antiarthritic activity against MSU-induced acute gout arthritis rat model assessed as degree of ankle joint swelling at 20 mg/kg after 8 hrs (reference value: 7.8 +/- 1.6); assay type: functional
Rattus norvegicus [22] = organism: Rattus norvegicus; assay: Down regulation of MSU-induced caspase-1 protein expression in synovial tissue of MSU-induced acute gout arthritis rat model by western blot analysis; assay type: functional, organism-based
Rattus norvegicus [23] = assay: Antiarthritic activity against MSU-induced acute gout arthritis rat model assessed as degree of ankle joint swelling at 20 mg/kg after 4 hrs (reference value: 8.8 +/- 1.7); assay type: functional
Rattus norvegicus [24] = organism: Rattus norvegicus; assay: Down regulation of MSU-induced NLRP3 protein expression in synovial tissue of MSU-induced acute gout arthritis rat model by western blot analysis; assay type: functional, organism-based
Mus musculus [25] = assay: In vivo inhibition of xanthine oxidase in potassium oxonate-induced hyperuricemia mouse model assessed as reduction in enzyme activity in liver at 5 mg/kg relative to control; assay type: functional
Rattus norvegicus [26] = assay: Antiarthritic activity against MSU-induced acute gout arthritis rat model assessed as degree of ankle joint swelling at 5 mg/kg after 4 hrs (reference value: 8.8 +/- 1.7); assay type: functional
Rattus norvegicus [27] = assay: Antiarthritic activity against MSU-induced acute gout arthritis rat model assessed as degree of ankle joint swelling at 10 mg/kg after 2 hrs (reference value: 7.5 +/- 1.6); assay type: functional
Rattus norvegicus [28] = assay: Antiarthritic activity against MSU-induced acute gout arthritis rat model assessed as degree of ankle joint swelling at 20 mg/kg after 2 hrs (reference value: 7.5 +/- 1.6); assay type: functional
Mus musculus [29] = assay: In vivo inhibition of xanthine oxidase in mouse assessed as reduction of enzyme activity in liver at 5 mg/kg relative to control; assay type: functional
Rattus norvegicus [30] = assay: Antiarthritic activity against MSU-induced acute gout arthritis rat model assessed as degree of ankle joint swelling at 20 mg/kg after 24 hrs (reference value: 5.6 +/- 1.8); assay type: functional
Mus musculus [31] = assay: In vivo inhibition of xanthine oxidase in potassium oxonate-induced hyperuricemia mouse model assessed as reduction in enzyme activity in liver at 20 mg/kg relative to control; assay type: functional
Rattus norvegicus [32] = assay: Antiarthritic activity against MSU-induced acute gout arthritis rat model assessed as degree of ankle joint swelling at 20 mg/kg after 12 hrs (reference value: 6.6 +/- 1.5); assay type: functional
Rattus norvegicus [33] = assay: Antiarthritic activity against MSU-induced acute gout arthritis rat model assessed as degree of ankle joint swelling at 20 mg/kg after 48 hrs (reference value: 3.4 +/- 0.5); assay type: functional
Rattus norvegicus [34] = assay: Antiarthritic activity against MSU-induced acute gout arthritis rat model assessed as degree of ankle joint swelling at 5 mg/kg after 24 hrs (reference value: 5.6 +/- 1.8); assay type: functional
Rattus norvegicus [35] = assay: Antiarthritic activity against MSU-induced acute gout arthritis rat model assessed as degree of ankle joint swelling at 5 mg/kg after 2 hrs (reference value: 7.5 +/- 1.6); assay type: functional
Rattus norvegicus [36] = assay: Antiarthritic activity against MSU-induced acute gout arthritis rat model assessed as degree of ankle joint swelling at 5 mg/kg after 48 hrs (reference value: 3.4 +/- 0.5); assay type: functional
Rattus norvegicus [37] = assay: Antiarthritic activity against MSU-induced acute gout arthritis rat model assessed as degree of ankle joint swelling at 10 mg/kg after 24 hrs (reference value: 5.6 +/- 1.8); assay type: functional
Rattus norvegicus [38] = assay: Antiarthritic activity against MSU-induced acute gout arthritis rat model assessed as degree of ankle joint swelling at 10 mg/kg after 8 hrs (reference value: 7.8 +/- 1.6); assay type: functional
Mus musculus [39] = assay: In vivo inhibition of xanthine oxidase in mouse assessed as reduction in enzyme activity in liver at 20 mg/kg relative to control; assay type: functional
[40] = biological target: T1, Xanthine dehydrogenase/oxidase; assay: Competitive inhibition of xanthine oxidase (unknown origin) by Lineweaver-Burk plot analysis
Mus musculus [41] = assay: Antiarthritic activity in potassium oxonate-induced hyperuricemia mouse model assessed as reduction in uric acid level in serum at 5 to 20 mg/kg; assay type: functional, organism-based
Mus musculus [42] = assay: Antiarthritic activity in potassium oxonate-induced hyperuricemia mouse model assessed as reduction in uric acid level in serum at 10 mg/kg; assay type: functional, organism-based

T1 sequence (P47989 whole entry): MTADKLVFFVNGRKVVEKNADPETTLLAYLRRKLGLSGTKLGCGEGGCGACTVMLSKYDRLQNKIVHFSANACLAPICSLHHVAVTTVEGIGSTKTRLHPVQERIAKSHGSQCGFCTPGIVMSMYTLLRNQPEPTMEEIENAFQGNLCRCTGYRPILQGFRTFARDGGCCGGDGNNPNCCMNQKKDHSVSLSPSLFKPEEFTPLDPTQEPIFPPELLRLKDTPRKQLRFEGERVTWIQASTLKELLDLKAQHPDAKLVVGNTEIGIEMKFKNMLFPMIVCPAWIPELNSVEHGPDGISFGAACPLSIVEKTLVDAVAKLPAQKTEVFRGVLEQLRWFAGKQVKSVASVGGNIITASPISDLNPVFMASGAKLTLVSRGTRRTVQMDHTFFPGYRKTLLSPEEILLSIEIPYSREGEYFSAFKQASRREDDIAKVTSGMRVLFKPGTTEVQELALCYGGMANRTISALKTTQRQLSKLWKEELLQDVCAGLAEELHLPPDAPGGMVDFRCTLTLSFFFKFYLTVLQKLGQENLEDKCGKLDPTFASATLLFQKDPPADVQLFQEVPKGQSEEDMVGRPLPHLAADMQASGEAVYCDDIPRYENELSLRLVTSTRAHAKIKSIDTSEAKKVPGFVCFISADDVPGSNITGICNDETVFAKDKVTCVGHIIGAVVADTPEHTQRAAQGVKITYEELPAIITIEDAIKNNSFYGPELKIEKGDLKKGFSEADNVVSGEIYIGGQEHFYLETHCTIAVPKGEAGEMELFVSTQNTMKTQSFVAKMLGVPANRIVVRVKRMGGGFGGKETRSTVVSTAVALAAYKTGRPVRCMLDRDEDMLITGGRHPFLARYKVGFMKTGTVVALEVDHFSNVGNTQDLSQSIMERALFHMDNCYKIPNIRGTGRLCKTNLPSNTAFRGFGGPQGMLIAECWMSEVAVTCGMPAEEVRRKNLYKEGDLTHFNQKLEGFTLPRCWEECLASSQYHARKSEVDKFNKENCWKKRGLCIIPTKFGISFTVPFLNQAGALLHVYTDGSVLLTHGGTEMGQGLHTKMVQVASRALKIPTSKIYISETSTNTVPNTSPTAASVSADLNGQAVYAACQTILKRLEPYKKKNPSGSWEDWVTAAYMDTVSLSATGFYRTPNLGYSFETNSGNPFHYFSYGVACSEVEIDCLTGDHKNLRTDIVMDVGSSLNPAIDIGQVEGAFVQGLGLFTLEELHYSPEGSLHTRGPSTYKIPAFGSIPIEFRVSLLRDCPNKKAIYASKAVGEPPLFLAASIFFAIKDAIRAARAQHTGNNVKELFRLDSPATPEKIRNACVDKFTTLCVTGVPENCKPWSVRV
Chain of NACHT, LRR and PYD domains-containing protein 3 (Q96P20 whole entry, the tested form may be a part): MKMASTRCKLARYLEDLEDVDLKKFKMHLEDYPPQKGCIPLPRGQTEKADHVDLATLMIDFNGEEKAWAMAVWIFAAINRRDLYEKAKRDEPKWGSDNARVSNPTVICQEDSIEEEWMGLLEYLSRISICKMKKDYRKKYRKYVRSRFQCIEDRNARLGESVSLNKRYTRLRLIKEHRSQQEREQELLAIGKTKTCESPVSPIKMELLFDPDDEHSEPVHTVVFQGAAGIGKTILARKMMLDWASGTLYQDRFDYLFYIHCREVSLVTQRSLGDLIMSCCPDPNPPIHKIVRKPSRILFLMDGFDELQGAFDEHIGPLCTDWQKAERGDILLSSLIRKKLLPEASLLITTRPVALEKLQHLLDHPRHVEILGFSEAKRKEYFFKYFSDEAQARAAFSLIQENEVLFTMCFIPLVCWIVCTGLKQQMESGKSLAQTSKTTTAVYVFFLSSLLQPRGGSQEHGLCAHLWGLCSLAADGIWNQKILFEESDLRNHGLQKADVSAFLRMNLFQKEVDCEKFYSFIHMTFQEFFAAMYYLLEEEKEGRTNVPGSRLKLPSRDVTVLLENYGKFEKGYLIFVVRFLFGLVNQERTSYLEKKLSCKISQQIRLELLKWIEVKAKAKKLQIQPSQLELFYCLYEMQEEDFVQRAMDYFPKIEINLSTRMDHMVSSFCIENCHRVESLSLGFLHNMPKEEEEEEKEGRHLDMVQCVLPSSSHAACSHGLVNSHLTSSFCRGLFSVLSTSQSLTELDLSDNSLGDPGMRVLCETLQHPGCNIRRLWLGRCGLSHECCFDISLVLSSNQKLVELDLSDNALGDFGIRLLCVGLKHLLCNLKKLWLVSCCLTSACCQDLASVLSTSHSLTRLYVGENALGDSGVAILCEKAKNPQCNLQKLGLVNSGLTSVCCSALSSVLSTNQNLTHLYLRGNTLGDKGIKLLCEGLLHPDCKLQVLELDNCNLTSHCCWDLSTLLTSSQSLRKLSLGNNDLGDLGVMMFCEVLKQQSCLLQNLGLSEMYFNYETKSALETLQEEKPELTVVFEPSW

C/C(=N\NS(=O)(=O)c1ccc([N+](=O)[O-])cc1)c1nc2ccccc2o1
IC50 [1]: > 50 µM

C/C(=N\NS(=O)(=O)c1ccc(Br)cc1)c1nc2ccccc2[nH]1
IC50 [1]: > 50 µM

C/C(=N\NS(=O)(=O)c1cccc([N+](=O)[O-])c1)c1nc2ccccc2o1
IC50 [1]: > 50 µM

C/C(=N\NS(=O)(=O)c1ccccc1)c1nc2ccccc2o1
IC50 [1]: > 50 µM

COc1ccc(C(=O)O/N=C(\C)c2nc3ccccc3[nH]2)cc1
IC50 [1]: > 50 µM

O=C(/C=C/c1ccc(O)cc1)c1ccc(O)cc1O [ISOLIQUIRITIGENIN]
CC50 [2]: 250 µM
IC50 [3]: 10.1 µM

COc1cc2c(c(OC)c1OC)-c1ccc(OC)c(=O)cc1[C@@H](NC(C)=O)CC2 [COLCHICINE]
Activity (Rattus norvegicus [4]): 4.3
Activity (Rattus norvegicus [5]): 4.9
inhibition (Rattus norvegicus [6]): Active
inhibition (Rattus norvegicus [7]): Active
Activity (Rattus norvegicus [8]): 4
Activity (Rattus norvegicus [9]): 3.5
inhibition (Rattus norvegicus [10]): Active
Activity (Rattus norvegicus [11]): 2.8
Activity (Rattus norvegicus [12]): 2

C/C(=N\NS(=O)(=O)c1ccc(C)cc1)c1nc2ccccc2o1
CC50 [2]: 250 µM

COc1ccc(S(=O)(=O)N/N=C(\C)c2nc3ccccc3o2)cc1
Activity (Rattus norvegicus [13]): 5.9
Activity (Rattus norvegicus [14]): 6.1
Activity (Rattus norvegicus [15]): 6
inhibition in vivo at 10 mg/kg (Mus musculus [16]): 30.6%
inhibition (Rattus norvegicus [17]): Dose-dependent effect
Activity (Rattus norvegicus [18]): 1.8
inhibition in vivo at 10 mg/kg (Mus musculus [19]): 4.6%
Activity (Rattus norvegicus [20]): 4.5
CC50 [2]: 250 µM
Activity (Rattus norvegicus [21]): 4.2
inhibition (Rattus norvegicus [22]): Dose-dependent effect
Activity (Rattus norvegicus [23]): 5
inhibition (Rattus norvegicus [24]): Dose-dependent effect
inhibition in vivo at 5 mg/kg (Mus musculus [25]): 19.6%
Activity (Rattus norvegicus [26]): 6.8
Activity (Rattus norvegicus [27]): 6
Activity (Rattus norvegicus [28]): 5.5
inhibition in vivo at 5 mg/kg (Mus musculus [29]): 3.6%
Activity (Rattus norvegicus [30]): 2.2
inhibition in vivo at 20 mg/kg (Mus musculus [31]): 44.1%
Activity (Rattus norvegicus [32]): 3.9
Activity (Rattus norvegicus [33]): 1.6
IC50 [3]: 7.5 µM
Activity (Rattus norvegicus [34]): 4.9
IC50 [1]: 4.2 µM
Activity (Rattus norvegicus [35]): 6.5
Activity (Rattus norvegicus [36]): 2.9
Activity (Rattus norvegicus [37]): 2.5
Activity (Rattus norvegicus [38]): 5.4
inhibition in vivo at 20 mg/kg (Mus musculus [39]): 7.6%
inhibition (INH) [40]: Active
Activity (Mus musculus [41]): Active

CCCCS(=O)(=O)N/N=C(\C)c1nc2ccccc2o1
IC50 [1]: > 50 µM

C/C(=N\OC(=O)Cc1ccccc1)c1nc2ccccc2[nH]1
IC50 [1]: > 50 µM

C/C(=N\NS(=O)(=O)c1ccc([N+](=O)[O-])cc1)c1nc2ccccc2[nH]1
IC50 [1]: > 50 µM

Oc1ncnc2[nH]ncc12 [ALLOPURINOL]
inhibition in vivo at 10 mg/kg (Mus musculus [16]): 47.9%
inhibition in vivo at 10 mg/kg (Mus musculus [19]): 25.3%
Activity (Mus musculus [42]): Active

CCCS(=O)(=O)N/N=C(\C)c1nc2ccccc2[nH]1
IC50 [1]: > 50 µM

COc1ccc(S(=O)(=O)N/N=C(\C)c2nc3ccccc3[nH]2)cc1
IC50 [1]: > 50 µM

C/C(=N\NS(=O)(=O)c1ccccc1)c1nc2ccccc2[nH]1
IC50 [1]: > 50 µM

C/C(=N\NS(=O)(=O)c1ccc(Br)cc1)c1nc2ccccc2o1
IC50 [1]: > 50 µM
